Assay results reported in publication PMC10092844, “Inhibition profile of trifludimoxazin towards PPO2 target site mutations” (Pest Management Science, 2022).
Positions count from the first letter of the chain named.

Legend:
[1] = target: T1, PPO2 R128T ΔG210 (Amaranthus tuberculatus, UniProt Q0NZW9, DEL210-210/R128T); format: biochemical
T1 sequence (Q0NZW9 with tags, fused parts or gaps R128T/DEL210-210): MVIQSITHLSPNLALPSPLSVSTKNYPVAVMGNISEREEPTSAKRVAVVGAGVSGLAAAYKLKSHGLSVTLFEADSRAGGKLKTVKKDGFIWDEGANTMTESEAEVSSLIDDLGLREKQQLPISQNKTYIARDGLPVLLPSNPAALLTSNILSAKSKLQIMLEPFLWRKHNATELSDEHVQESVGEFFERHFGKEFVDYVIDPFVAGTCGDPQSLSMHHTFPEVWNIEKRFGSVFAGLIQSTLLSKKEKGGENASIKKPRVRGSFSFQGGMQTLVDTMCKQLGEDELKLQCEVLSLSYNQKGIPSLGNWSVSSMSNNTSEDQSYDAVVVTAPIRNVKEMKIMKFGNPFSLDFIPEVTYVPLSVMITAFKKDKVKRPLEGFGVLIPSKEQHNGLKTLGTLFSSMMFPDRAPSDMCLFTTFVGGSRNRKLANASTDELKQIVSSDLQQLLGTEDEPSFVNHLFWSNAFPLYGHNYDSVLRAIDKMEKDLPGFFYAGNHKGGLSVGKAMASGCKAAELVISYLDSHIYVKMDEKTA

[2] = target: T2, PPO2 R128H ΔG210 (Amaranthus tuberculatus, UniProt Q0NZW9, DEL210/R128H); experiment: biochemical; format: biochemical
T2 sequence (Q0NZW9 with tags, fused parts or gaps R128H/DEL210): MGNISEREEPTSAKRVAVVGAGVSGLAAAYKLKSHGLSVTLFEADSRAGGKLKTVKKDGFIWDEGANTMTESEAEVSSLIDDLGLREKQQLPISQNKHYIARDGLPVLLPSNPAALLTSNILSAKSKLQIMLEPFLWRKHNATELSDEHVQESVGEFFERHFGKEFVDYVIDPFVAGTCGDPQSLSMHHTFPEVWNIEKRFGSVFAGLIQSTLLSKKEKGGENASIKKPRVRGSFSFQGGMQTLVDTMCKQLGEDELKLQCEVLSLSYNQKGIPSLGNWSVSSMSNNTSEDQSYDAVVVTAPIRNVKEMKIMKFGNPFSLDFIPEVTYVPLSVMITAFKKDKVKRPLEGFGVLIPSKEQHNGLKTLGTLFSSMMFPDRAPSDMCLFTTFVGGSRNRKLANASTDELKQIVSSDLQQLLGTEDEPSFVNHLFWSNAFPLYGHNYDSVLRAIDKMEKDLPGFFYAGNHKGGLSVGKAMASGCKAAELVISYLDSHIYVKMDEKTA

[3] = target: T3, PPO2 R128L ΔG210 (Amaranthus tuberculatus, UniProt Q0NZW9, DEL210-210/R128L); experiment: biochemical; format: biochemical
T3 sequence (Q0NZW9 with tags, fused parts or gaps R128L/DEL210-210): T2 sequence (Q0NZW9 with tags, fused parts or gaps R128H/DEL210) with H98L

[4] = target: T4, PPO2 R128Q ΔG210 in Escherichia coli hemG (Amaranthus tuberculatus, UniProt Q0NZW9, DEL210-210/R128Q, cells depend on it); format: cell-based; conditions: read-out: IC50 (E. coli hemG growth)
T4 sequence (Q0NZW9 with tags, fused parts or gaps R128Q/DEL210-210): T1 sequence (Q0NZW9 with tags, fused parts or gaps R128T/DEL210-210) with T128Q

[5] = target: T5, PPO2 R128E ΔG210 in Escherichia coli hemG (Amaranthus tuberculatus, UniProt Q0NZW9, DEL210/R128E, cells depend on it); format: cell-based; conditions: read-out: IC50 (E. coli hemG growth)
T5 sequence (Q0NZW9 with tags, fused parts or gaps R128E/DEL210): T2 sequence (Q0NZW9 with tags, fused parts or gaps R128H/DEL210) with H98E

| Compound | IC50 [1] [µM] | IC50 [2] [nM] | IC50 [3] [nM] | IC50 [4] [µM] | IC50 [5] [nM] | Resistance factor [1] | Resistance factor [2] | Resistance factor [3] |
| --- | --- | --- | --- | --- | --- | --- | --- | --- |
| CCOC(=O)C(C)OC(=O)c1cc(Oc2ccc(C(F)(F)F)cc2Cl)ccc1[N+](=O)[O-] (stereo not drawn) [Lactofen, lactofen] | 3.92 | 1590 | 649 | > 10 | 2890 |  |  |  |
| CS(=O)(=O)NC(=O)c1cc(Oc2ccc(C(F)(F)F)cc2Cl)ccc1[N+](=O)[O-] [Fomesafen, fomesafen] | > 10 | > 10000 | > 10000 |  |  |  |  |  |
| CC(C)N(C)S(=O)(=O)NC(=O)c1cc(-n2c(=O)cc(C(F)(F)F)n(C)c2=O)c(F)cc1Cl [Saflufenacil, saflufenacil] | > 10 | > 10000 | > 10000 | > 10 | > 10000 |  |  |  |
| C#CCN1C(=O)C(F)(F)Oc2cc(F)c(-n3c(=O)n(C)c(=S)n(C)c3=O)cc21 [Trifludimoxazin, trifludimoxazin] | 0.0748 | 30.2 | 5.68 | 0.00986 | 9.87 | 305 | 123 | 23 |
